Results: patent US8637557B2, “Aminothiazole derivative” (Taisho Pharmaceutical Co., Ltd, priority 2009, dated 2014)
Like-named read-outs stand apart in the source and are kept apart here.

Target: T1, human PI 3-kinase p120γ (Homo sapiens, UniProt P48736)
T1 construct: purchased Millipore Corporation
Assay: PI 3-kinase p120γ enzyme activity inhibition test
Type: biochemical
Conditions: ATP 10.0 μM, PIP2-PS 5.0 μM, 30° C., 2 hours
Description: Using human PI 3-kinase p120γ (manufactured by Millipore Corporation) and a mixed micellized product (hereinafter abbreviated as PIP2-PS) of the substrate thereof, L-a-Phosphatidyl-D-myo-inositol-4,5-bisphosphate (product of Calbiochem, hereinafter abbreviated as PIP2), and L-a-Phosphatidyl-L-Serine (manufactured by Sigma, hereinafter abbreviated as PS), the compound of the present invention was examined for the inhibitory action on PI3 Kinase p120γ enzyme activity (Km=8.9 μM for ATP, Km=4.0 μM for PIP2-PS).
PIP2-PS was prepared by mixing 500 μM of PIP2 and 2.5 nM of PS and sonicating the mixture for 40 minutes while ice cooling to cause micellization. ATP (final concentration 10.0 μM), [γ-^33P] ATP (final concentration 10 μCi/ml), PIP2-PS (final concentration 5.0 μM) and DMSO solutions of the test compound in different concentrations (compound final concentration 1.0×10^−5 to 2.4×10^−12 M, DMSO final concentration 0.1%) were added to PI 3-kinase p120γ, stirred and reacted at 30° C. for 2 hours. Using Phospholipid-Coated FlashPlate Microplates, 96-Well and Phospholipid FlashPlate Coating Buffer (both manufactured by PerkinElmer Co., Ltd.), PIP2-PS and phosphorylated PIP2-PS were allowed to be adsorbed to the well wall of the plate and collected. The well was washed twice with PBS (Phosphate-Buffered Saline) and dried. The radioactivity was measured using Top Count NXT (manufactured by PerkinElmer Co., Ltd.), whereby the phosphorylated amount (a) of PIP2-PS at the time of compound addition was calculated.
The same procedure was carried out in the absence of the test compound and the phosphorylated amount (b) of PIP2-PS was calculated. Further, the same procedure was carried out in the absence of both of the substrate and the test compound, and the PIP2-PS phosphorylated amount (c) of the background was calculated.
The PI3 Kinase p120γ enzyme activity suppression rate of the compound was calculated by the following formula. Suppression rate (%)=[1−(a−c)/(b−c)]×100
More specifically, using the suppression rate by the test compound of different concentrations, the IC50 value was calculated according to the dose-dependent inhibition curve analyzed by a data analysis software Origin (Lightstone Corp.) and used as the inhibitory activity index.

[1] = read-out: PI3Kγ (IC50 value class)

T1 sequence (P48736 whole entry): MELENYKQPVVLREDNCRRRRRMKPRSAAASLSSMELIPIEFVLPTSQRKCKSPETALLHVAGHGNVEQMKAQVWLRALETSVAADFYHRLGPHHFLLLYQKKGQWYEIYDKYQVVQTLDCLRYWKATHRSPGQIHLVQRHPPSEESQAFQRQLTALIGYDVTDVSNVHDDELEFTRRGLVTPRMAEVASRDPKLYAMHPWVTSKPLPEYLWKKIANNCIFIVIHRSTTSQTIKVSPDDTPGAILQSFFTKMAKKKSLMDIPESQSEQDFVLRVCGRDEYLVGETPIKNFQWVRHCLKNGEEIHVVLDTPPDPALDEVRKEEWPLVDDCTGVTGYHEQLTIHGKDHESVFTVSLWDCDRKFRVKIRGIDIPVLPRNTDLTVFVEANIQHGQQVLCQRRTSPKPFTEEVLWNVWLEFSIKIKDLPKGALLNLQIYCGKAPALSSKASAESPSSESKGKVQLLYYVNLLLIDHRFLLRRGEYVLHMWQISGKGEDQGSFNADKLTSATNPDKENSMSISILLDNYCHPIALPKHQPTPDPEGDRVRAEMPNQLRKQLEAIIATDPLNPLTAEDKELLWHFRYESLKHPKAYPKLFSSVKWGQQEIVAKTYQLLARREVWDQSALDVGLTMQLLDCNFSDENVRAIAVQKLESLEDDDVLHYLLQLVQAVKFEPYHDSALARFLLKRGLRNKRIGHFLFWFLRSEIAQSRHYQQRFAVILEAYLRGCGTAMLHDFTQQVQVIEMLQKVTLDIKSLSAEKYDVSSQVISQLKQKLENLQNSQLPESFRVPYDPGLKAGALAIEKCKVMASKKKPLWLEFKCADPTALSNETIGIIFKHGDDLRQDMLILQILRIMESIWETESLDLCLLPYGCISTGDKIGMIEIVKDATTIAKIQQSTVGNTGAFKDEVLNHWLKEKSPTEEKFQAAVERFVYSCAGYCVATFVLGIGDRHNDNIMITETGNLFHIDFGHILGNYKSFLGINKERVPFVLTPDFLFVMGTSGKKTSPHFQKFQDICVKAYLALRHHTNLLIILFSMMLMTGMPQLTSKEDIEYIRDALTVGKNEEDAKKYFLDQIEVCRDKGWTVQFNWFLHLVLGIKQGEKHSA

Row | IC50 [1] [nM] | IC50 (read-out: IC50 value) [nM] | SMILES
1 | < 100 |  | CC(=O)Nc1nc(C)c(-c2nc(-c3cccnc3C)no2)s1 [Example 6]
2 | < 100 |  | Cc1nc(NC(=O)NCCC(=O)N2CCNCC2)sc1-c1nc(CC(F)(F)F)no1 [Example 169]
3 | 500 to 10000 |  | CC(=O)Nc1nc(C)c(-c2nc(-c3ccncc3)no2)s1 [Example 11]
4 | < 100 |  | Cc1nc(NC(=O)NCCCN(C)C)sc1-c1nc(-c2cccnc2)no1 [Example 127]
5 | < 100 |  | COCCNC(=O)Nc1nc(C)c(-c2nc(-c3cccnc3)no2)s1 [Example 122]
6 | < 100 | 88 | CC(=O)Nc1nc(C)c(-c2nc(CCC(C)C)no2)s1 [Example 82]
7 | < 100 |  | CC(=O)Nc1nc(C)c(-c2nc(C3CCOCC3)no2)s1 [Example 54]
8 | 100 to 500 |  | COC(=O)CCc1noc(-c2sc(NC(C)=O)nc2C)n1 [Example 71]
9 | 500 to 10000 |  | CC(=O)Nc1nc(C)c(-c2nc(C(C)NC(C)=O)no2)s1 (centres unmarked) [Example 77]
10 | 100 to 500 |  | CC(=O)Nc1nc(C)c(-c2nc(-c3ccc(=O)n(C)c3)no2)s1 [Example 39]
11 | < 100 |  | CC(=O)Nc1nc(C)c(-c2nc(C3CCCC3)no2)s1 [Example 18]
12 | < 100 |  | Cc1nc(NC(=O)NCCCC(=O)OC(C)(C)C)sc1-c1nc(-c2cccnc2)no1 [Example 125]
13 | 100 to 500 |  | CC(=O)Nc1nc(C)c(-c2nc(CC3CCOCC3)no2)s1 [Example 45]
14 | < 100 |  | CC(=O)Nc1nc(C)c(-c2nc(C3CC3(C)C)no2)s1 (centres unmarked) [Example 101]
15 | < 100 |  | COC(=O)c1cncc(-c2noc(-c3sc(NC(C)=O)nc3C)n2)c1 [Example 37]
16 | < 100 |  | COCCCC(=O)Nc1nc(C)c(-c2nc(-c3cccnc3)no2)s1 [Example 128]
17 | 100 to 500 |  | CCOC(=O)C(C)(C)Cc1noc(-c2sc(NC(C)=O)nc2C)n1 [Example 105]

Row | IC50 [1] [nM] | IC50 (read-out: IC50 value) [nM] | SMILES
18 | 100 to 500 |  | Cc1nc(NC(=O)NCCC(=O)N2CCN(C(=O)OC(C)(C)C)CC2)sc1-c1nc(CC(F)(F)F)no1 [Example 168]
19 | < 100 |  | Cc1nc(NC(=O)NCCC(=O)N2CCC(O)CC2)sc1-c1nc(CC(F)(F)F)no1 [Example 166]
20 | 100 to 500 |  | CC(=O)Nc1nc(C)c(-c2nc(CCCCO)no2)s1 [Example 61]
21 | < 100 |  | Cc1nc(NC(=O)NCCC(=O)OC(C)(C)C)sc1-c1nc(CC(C)(C)CO)no1 [Example 157]
22 | < 100 |  | CCC(CC)(CO)Cc1noc(-c2sc(NC(C)=O)nc2C)n1 [Example 46]
23 | < 100 |  | CC(=O)Nc1nc(C)c(-c2nc(C(C)(C)CO)no2)s1 [Example 65]
24 | < 100 |  | CC(=O)Nc1nc(C)c(-c2nc(CC(C)(C)CNS(C)(=O)=O)no2)s1 [Example 44]
25 | 100 to 500 |  | CC(=O)Nc1nc(C)c(-c2nc(-c3ccc(=O)[nH]c3)no2)s1 [Example 40]
26 | < 100 |  | CC(=O)Nc1nc(C)c(-c2nc(C[C@H](C)CO)no2)s1 [Example 62]
27 | < 100 |  | Cc1nc(NC(=O)NCC(C)O)sc1-c1nc(-c2cncnc2)no1 (centres unmarked) [Example 176]
28 | < 100 |  | CCn1cnc(CCNC(=O)Nc2nc(C)c(-c3nc(-c4cccnc4)no3)s2)c1 [Example 172]
29 | 100 to 500 |  | CCOC(=O)c1noc(-c2sc(NC(C)=O)nc2C)n1 [Example 55, Ethyl-5-[2-(acetylamino)-4-methyl-1,3-thiazol-5-yl]-1,2,4-oxadiazol-3-carboxylate]
30 | 500 to 10000 |  | CC(=O)Nc1nc(C)c(-c2nc(C(C)NS(C)(=O)=O)no2)s1 (centres unmarked) [Example 81]
31 | < 100 |  | Cc1nc(NC(=O)NCCS(=O)(=O)NC(C)(C)C)sc1-c1nc(-c2cccnc2)no1 [Example 133]
32 | < 100 |  | CC(=O)Nc1nc(C)c(-c2nc(CC(C)(C)C(C)=O)no2)s1 [Example 86]
33 | < 100 |  | Cc1nc(NC(=O)NCC(=O)OC(C)(C)C)sc1-c1nc(-c2cccnc2)no1 [Example 126]
34 | < 100 |  | Cc1nc(NC(=O)NCCC(=O)OC(C)(C)C)sc1-c1nc(-c2cccnc2)no1 [Example 117, Tert-butyl N-({4-methyl-5-[3-(pyridin-3-yl)-1,2,4-oxadiazol-5-yl]-1,3-thiazol-2-yl}carbamoyl)-β-alaninate]
